Experimental data: patent publication US20170355705A1 (GlaxoSmithKline Intellectual Property (No.2) Limited, priority 2014, published 2017)

Target: T1, SIRT1 (Homo sapiens, UniProt Q96EB6)
T1 sequence (Q96EB6 1-747): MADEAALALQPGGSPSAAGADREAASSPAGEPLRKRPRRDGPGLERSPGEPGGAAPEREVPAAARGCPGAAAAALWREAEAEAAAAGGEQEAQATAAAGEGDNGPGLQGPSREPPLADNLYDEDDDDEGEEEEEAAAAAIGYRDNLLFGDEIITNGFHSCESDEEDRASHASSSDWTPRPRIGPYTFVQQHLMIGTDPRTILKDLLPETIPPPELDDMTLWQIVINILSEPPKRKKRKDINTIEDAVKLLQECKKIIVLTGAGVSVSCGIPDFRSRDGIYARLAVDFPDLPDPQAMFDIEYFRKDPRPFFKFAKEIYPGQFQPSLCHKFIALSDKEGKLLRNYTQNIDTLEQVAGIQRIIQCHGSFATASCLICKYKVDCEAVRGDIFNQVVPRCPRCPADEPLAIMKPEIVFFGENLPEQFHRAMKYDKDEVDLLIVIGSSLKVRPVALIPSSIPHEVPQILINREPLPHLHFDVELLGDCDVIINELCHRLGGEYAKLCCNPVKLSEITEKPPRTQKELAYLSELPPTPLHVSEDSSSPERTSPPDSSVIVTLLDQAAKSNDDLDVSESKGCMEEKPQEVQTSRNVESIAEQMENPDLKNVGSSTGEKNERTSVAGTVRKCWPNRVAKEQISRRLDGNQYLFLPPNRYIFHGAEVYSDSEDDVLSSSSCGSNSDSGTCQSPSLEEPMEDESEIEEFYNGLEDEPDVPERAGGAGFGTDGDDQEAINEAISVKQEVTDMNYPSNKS
Assay: Trp mass spectrometry assay of SIRT1 activity (EC1.5, percent maximum activation)
Assay type: biochemical
Details: Trp mass spectrometry assay; for TRP Activity (EC1.5): EC1.5 = concentration giving 150% activation of SIRT1; for TRP MAX RESP (percent maximum fold activation): percent maximum activation of SIRT1
From the text: Mass spectrometry based assays were used to identify modulators of SIRT1 activity. […] The peptide was labeled with the fluorophore 5TMR (excitation 540 nm/emission 580 nm) at the C-terminus. The sequence of the peptide substrate was based on p53 with several modifications. In addition, the methionine residue naturally present in the sequence was replaced with the norleucine because the methionine may be susceptible to oxidation during synthesis and purification.
The Trp mass spectrometry assay was conducted as follows. […] The SIRT1 protein was obtained by cloning the SirT1 gene into a T7-promoter containing vector, which was then expressed in BL21(DE3) bacterial cells and purified as described in further detail below. Test compound was added at varying concentrations to this reaction mixture and the resulting reactions were monitored. After the 25 minute incubation with SIRT1, 10 μL of 10% formic acid was added to stop the reaction. The resulting reactions were sealed and frozen for later mass spec analysis. The relative SIRT1 activity was then determined by measuring the amount of O-acetyl-ADP-ribose (OAADPR) formed (or, alternatively, the amount of deacetylated Trp peptide generated) by the NAD-dependent sirtuin deacetylation reaction in the presence of varying concentrations of the test compound versus control reactions lacking the test compound. The degree to which the test agent activated deacetylation by SIRT1 was expressed as EC1.5 (i.e., the concentration of compound required to increase SIRT1 activity by 50% over the control lacking test compound), and Percent Maximum Activation (i.e., the maximum activity relative to control (100%) obtained for the test compound).
This time point was the same as that used for test compounds and, within the linear range, the endpoint represents a change in velocity.
For the above assay, SIRT1 protein was expressed and purified as follows. The SirT1 gene was cloned into a T7-promoter containing vector and transformed into BL21(DE3). The protein was expressed by induction with 1 mM IPTG as an N-terminal His-tag fusion protein at 18° C. overnight and harvested at 30,000×g. Cells were lysed with lysozyme in lysis buffer (50 mM Tris-HCl, 2 mM Tris[2-carboxyethyl]phosphine (TCEP), 10 μM ZnCl2, 200 mM NaCl) and further treated with sonication for 10 min for complete lysis. The protein was purified over a Ni-NTA column (Amersham) and fractions containing pure protein were pooled, concentrated and run over a sizing column (Sephadex S200 26/60 global). The peak containing soluble protein was collected and run on an Ion-exchange column (MonoQ). Gradient elution (200 mM-500 mM NaCl) yielded pure protein. This protein was concentrated and dialyzed against dialysis buffer (20 mM Tris-HCl, 2 mM TCEP) overnight. The protein was aliquoted and frozen at −80° C. until further use.
“NT” means not tested; “ND” means not determinable.

SMILES | TRP Activity (EC1.5) | TRP MAX RESP (percent maximum fold activation)
Cc1cc(-c2nc3c(cc2C)N2CC[C@@H](C2)N3C(=O)Nc2cccnc2)ccn1 [Example 17, (4S)-8-methyl-7-(2-methylpyridin-4-yl)-N-(pyridin-3-yl)-3,4-dihydro-1,4-methano pyrido[2,3-b][1,4]diazepine-5(2H)-carboxamide] | B (EC1.5 1-25 μM) | A (Fold activation ≧150%)
O=C(Nc1ccnc(O[C@@H]2CCOC2)n1)N1c2nc(-c3cccc(C(F)(F)F)c3)c(Cl)cc2N2CC[C@H]1C2 [Example 18, (4S)-8-chloro-N-(2-(((R)-tetrahydrofuran-3-yl)oxy)pyrimidin-4-yl)-7-(3-(trifluoromethyl)phenyl)-3,4-dihydro-1,4-methanopyrido[2,3-b][1,4]diazepine-5(2H)-carboxamide] | B (EC1.5 1-25 μM) | A (Fold activation ≧150%)
O=C(Nc1ccnc(O[C@H]2CCOC2)n1)N1c2nc(-c3cccc(C(F)(F)F)c3)c(Cl)cc2N2CC[C@H]1C2 [Example 19, (4S)-8-chloro-N-(2-(((S)-tetrahydrofuran-3-yl)oxy)pyrimidin-4-yl)-7-(3-(trifluoromethyl)phenyl)-3,4-dihydro-1,4-methanopyrido[2,3-b][1,4]diazepine-5(2H)-carboxamide] | A (EC1.5<1 μM) | A (Fold activation ≧150%)
Cc1cc(-c2nc3c(cc2Cl)N2CC[C@@H](C2)N3C(=O)Nc2ccnc(O[C@H]3CCOC3)n2)ccn1 [Example 20, (4S)-8-chloro-7-(2-methylpyridin-4-yl)-N-(2-(((S)-tetrahydrofuran-3-yl)oxy)pyrimidin-4-yl)-3,4-dihydro-1,4-methanopyrido[2,3-b][1,4]diazepine-5(2H)-carboxamide] | C (EC1.5>25 μM) | A (Fold activation ≧150%)
Cc1cc(-c2nc3c(cc2Cl)N2CC[C@@H](C2)N3C(=O)Nc2ccnc(OC3CCOCC3)n2)ccn1 [Example 21, (4S)-8-chloro-7-(2-methylpyridin-4-yl)-N-(2-((tetrahydro-2H-pyran-4-yl)oxy)pyrimidin-4-yl)-3,4-dihydro-1,4-methanopyrido[2,3-b][1,4]diazepine-5(2H)-carboxamide] | C (EC1.5>25 μM) | B (Fold Activation <150%)
Cc1cc(-c2nc3c(cc2Cl)N2CC[C@@H](C2)N3C(=O)Nc2ccnc(O[C@@H]3CCOC3)n2)ccn1 [Example 22, (4S)-8-chloro-7-(2-methylpyridin-4-yl)-N-(2-(((R)-tetrahydrofuran-3-yl)oxy)pyrimidin-4-yl)-3,4-dihydro-1,4-methanopyrido[2,3-b][1,4]diazepine-5(2H)-carboxamide] | C (EC1.5>25 μM) | B (Fold Activation <150%)
O=C(Nc1cncc(OC[C@H](O)CO)c1)N1c2nc(-c3cccc(C(F)(F)F)c3)c(Cl)cc2N2CC[C@H]1C2 [Example 23, (4S)-8-chloro-N-(5-((R)-2,3-dihydroxypropoxy)pyridin-3-yl)-7-(3-(trifluoromethyl)phenyl)-3,4-dihydro-1,4-methanopyrido[2,3-b][1,4]diazepine-5(2H)-carboxamide] | A (EC1.5<1 μM) | A (Fold activation ≧150%)
O=C(Nc1cc(OC[C@H](O)CO)ncn1)N1c2nc(-c3cccc(C(F)(F)F)c3)c(Cl)cc2N2CC[C@H]1C2 [Example 24, (4S)-8-chloro-N-(6-((R)-2,3-dihydroxypropoxy)pyrimidin-4-yl)-7-(3-(trifluoromethyl)phenyl)-3,4-dihydro-1,4-methanopyrido[2,3-b][1,4]diazepine-5(2H)-carboxamide] | B (EC1.5 1-25 μM) | A (Fold activation ≧150%)
Cc1cc(-c2nc3c(c(C)c2C)N2CC[C@@H](C2)N3C(=O)Nc2ccccn2)ccn1 [Example 25, (4S)-8,9-dimethyl-7-(2-methylpyridin-4-yl)-N-(pyridin-2-yl)-3,4-dihydro-1,4-methanopyrido[2,3-b][1,4]diazepine-5(2H)-carboxamide] | B (EC1.5 1-25 μM) | A (Fold activation ≧150%)
Cc1cc(-c2nc3c(cc2Cl)N2CC[C@@H](C2)N3C(=O)Nc2cc(OC[C@@H](O)CO)ccn2)ccn1 [Example 27, (4S)-8-chloro-N-(4-((S)-2,3-dihydroxypropoxy)pyridin-2-yl)-7-(2-methylpyridin-4-yl)-3,4-dihydro-1,4-methanopyrido[2,3-b][1,4]diazepine-5(2H)-carboxamide] | B (EC1.5 1-25 μM) | A (Fold activation ≧150%)
Cl.O=C(Nc1ccnc(OC[C@@H](O)CO)n1)N1c2nc(-c3cccc(C(F)(F)F)c3)c(Cl)cc2N2CC[C@H]1C2 [Example 28, (4S)-8-chloro-N-(2-((S)-2,3-dihydroxypropoxy)pyrimidin-4-yl)-7-(3-(trifluoromethyl)phenyl)-3,4-dihydro-1,4-methanopyrido[2,3-b][1,4]diazepine-5(2H)-carboxamide, Hydrochloride] | A (EC1.5<1 μM) | A (Fold activation ≧150%)
Cc1cc(-c2nc3c(cc2Cl)N2CC[C@@H](C2)N3C(=O)Nc2cnc(OC[C@H](O)CO)cn2)ccn1 [Example 29, (4S)-8-chloro-N-(5-((R)-2,3-dihydroxypropoxy)pyrazin-2-yl)-7-(2-methylpyridin-4-yl)-3,4-dihydro-1,4-methanopyrido[2,3-b][1,4]diazepine-5(2H)-carboxamide] | B (EC1.5 1-25 μM) | A (Fold activation ≧150%)
O=C(Nc1ccnc(OC[C@@H](O)CO)n1)N1c2nc(-c3cccc(C(F)(F)F)c3)c(Cl)cc2N2CC[C@H]1C2 [Example 30, (4S)-8-chloro-N-(2-((S)-2,3-dihydroxypropoxy)pyrimidin-4-yl)-7-(3-(trifluoromethyl)phenyl)-3,4-dihydro-1,4-methanopyrido[2,3-b][1,4]diazepine-5(2H)-carboxamide] | A (EC1.5<1 μM) | A (Fold activation ≧150%)
O=C(Nc1cc(OC[C@H](O)CO)ccn1)N1c2nc(-c3cccc(C(F)(F)F)c3)c(Cl)cc2N2CC[C@H]1C2 [Example 31, (4S)-8-chloro-N-(4-((R)-2,3-dihydroxypropoxy)pyridin-2-yl)-7-(3-(trifluoromethyl)phenyl)-3,4-dihydro-1,4-methanopyrido[2,3-b][1,4]diazepine-5(2H)-carboxamide] | B (EC1.5 1-25 μM) | A (Fold activation ≧150%)
